Key:
Cy5-RNA = test: RNA binding test of lipidoid nanoparticles; type: physicochemical
Protocol: Lipidoids were fabricated into nanoparticles for all delivery applications. Briefly, lipidoids were mixed with sodium acetate buffer (25 mM, pH 5.2), sonicated for 30 min in an ultrasonic bath, followed by another 30 min of vigorous vortexing. The as-prepared blank LNPs were stored at 4° C. For Cy5-RNA/LNP, mRNA/LNP and protein/LNP complexation, blank lipidoid nanoparticles were mixed with RNA molecules or (−30)GFP-Cre protein in PBS buffer (pH 7.4) following our previously reported procedures and incubated at room temperature for another 30 min before use. Typical procedures for Nile red encapsulation are as follows: 5 μL of Nile red stock solution in acetone was added into an empty vial, which was then placed in a vacuum oven to completely remove the organic solvent. Then, a predetermined amount of blank LNP stock solution (1.0 mg/mL) was added into the vial. The mixture was sonicated for 40 min in an ultrasonic bath and stirred overnight at room temperature. The final concentration of Nile red was adjusted to 6.6×10-7 mol L-1 and 6×10-7 mol L-1 for thiol triggered release study and cell incubation, respectively, by diluting with PBS as necessary. Typical procedures for CPT and DiO/DiI FRET pair encapsulation are as follows: 100 μL of DiO/DiI stock solution in MeOH was charged into an empty vial and placed in a vacuum oven to remove the organic solvent. Lipidoids (2.0 mg) in 200 μL of methanol were then added into the vial and stirred to produce a homogeneous solution. Then, 600 μL of DI water was added dropwise in 10 min with continuous stirring. The resulting mixture was dialyzed against DI water for 24 h (Thermo Scientific Slide-A-Lyzer Dialysis Cassette, MWCO=3500 Da), and fresh water was replaced every 4 h. Typical procedures for encapsulation of calcein and doxonorubicin hydrochloride are as follows: precalculated amounts of calcein or Dox stock solutions in DI water was diluted into 800 μL with sodium acetate buffer, and used as the selective solvents to trigger the self-assembly process of lipidoids in methanol (5 mg/mL), respectively. […]

HeLa cells = test: Internalization of calcein loaded nanoparticles; type: cell-based; settings: 8 h of exposure
Protocol: The internalization kinetics and efficiencies of OCholB LNPs were then studied using NR loaded LNPs and HeLa cells. […] Next, all of the NR delivery efficiencies of eight OCholB LNPs were determined after 8 h of exposure. […] Representative fluorescent images of NR/LNPs (NR/75-OCholB, NR/76-OCholB and NR/77-OCholB) treated HeLa cells are shown in FIG. 12D, from which it is easily observed that NR was delivered into the cells and mainly distributed in cytoplasm, by OCholB LNPs. Next, the internalization of negatively charged hydrophilic fluorescent dye, calcein, was studied. […] Next, the use of OCholB LNPs for the intracellular delivery of macromolecular cargo was explored, using fluorescent recombinant (−30)GFP-Cre protein and HeLa-DsRed cells as the model system. […] Delivery efficiency was tested at a range of (−30)GFP-Cre protein concentrations (25, 50 and 100 nM), with a consistent lipid/protein ratio (i.e., delivery with the final lipid concentration of 1.7, 3.3, and 6.6 μg mL^−1 respectively). 33.2%, 43.8% and 74% of GFP positive (GFP^+) cells were recorded for (−30)GFP-Cre/Lpf2k treated cells with the concentration of (−30)GFP-Cre 25 nM, 50 nM and 100 nM, respectively. […]

[1] = 10/1 weight ratio, DTT (10 mM, 24 h) treated nanoparticles

Question: With `CCN(CC)CCN(CCC(=O)OCCSSCCNC(=O)OC1CCC2(C)C(=CCC3C2CCC2(C)C(C(C)CCCC(C)C)CCC32)C1)CCC(=O)OCCSSCCNC(=O)OC1CCC2(C)C(=CCC3C2CCC2(C)C(C(C)CCCC(C)C)CCC32)C1` (stereo not shown) [Lipidoid 75-OCholB] as the molecule, how does the “RNA molecules complexed with LNPs” value (Cy5-RNA; 10/1 weight ratio lipidoid/Cy5-RNA) read?
Answer: The value was 82.9%.

Question: What about the RNA binding efficacy (Cy5-RNA; [1]) of the same molecule?
Answer: Its RNA binding efficacy is 15.5%.

Question: What about the “unbound Cy5-RNA” value (Cy5-RNA; [1]) of the same molecule?
Answer: Its value is 84.5%.

Question: And the “mean fluorescent intensity vs free calcein-treated cells” value (HeLa cells)?
Answer: Its value is ~9.4 folds.

Source: patent US12133855B2, “Lipid-like nanocomplexes and uses thereof” (Trustees of Tufts College, priority 2018, dated 2024)
